Laboratory results taken from US20190290574A1, “TOPICAL SKIN CARE COMPOSITIONS COMPRISING MYRSINE AFRICANA EXTRACTS” (University of Pretoria, priority 2015, published 2019).
Where two headings read alike, the source gives them in different places. One block for each compound: values may come before it.

How the values were obtained:
[1] = tested on: human skin; assay: Irritancy patch test
Protocol: A sample of the ethanol extract was applied on the inner forearm of twenty (20) volunteers aged between 19-65 years using patch discs for 24 hours to determine irritancy. Visual assessments of the areas were made after 24, 48, 72 and 96 hours. Any reaction was graded as a score of 0, 0.5, 1, 2, 3, and 4, where 0 represented a no response and 4 a fiery redness, papules, oedema or bullae. The forearm of each volunteer included a positive control of sodium lauryl sulphate solution (1 g/100 mL) and a negative control of demineralised water.

[2] = target: T1, porcine pancreatic elastase (Sus scrofa, UniProt P00772); assay: Elastase inhibition assay (release of p-nitroaniline from N-Succinyl-Ala-Ala-Ala-p-nitroanilide); format: biochemical; details: for inhibition at 5 µg/mL: 5 μg/mL; for inhibition at 10 µg/mL: 10 μg/mL; for inhibition at 25 µg/mL: 25 μg/mL; for inhibition at 50 µg/mL: 50 μg/mL; for IC50: read-out: IC50 (μg/mL) (95% Confidence Interval) (converted)
T1 construct: purchased Sigma E0258; host or cells: porcine pancreas (tissue-derived product)
T1 sequence (P00772 27-266): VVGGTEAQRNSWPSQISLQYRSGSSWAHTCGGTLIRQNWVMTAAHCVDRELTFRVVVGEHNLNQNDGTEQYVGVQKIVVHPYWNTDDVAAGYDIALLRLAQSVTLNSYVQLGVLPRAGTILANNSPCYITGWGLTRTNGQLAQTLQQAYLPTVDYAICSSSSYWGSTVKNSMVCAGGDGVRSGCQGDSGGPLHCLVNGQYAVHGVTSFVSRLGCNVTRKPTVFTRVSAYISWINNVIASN
Protocol: The pancreatic elastase inhibitory activity was determined in vitro by the spectrophotometric determination of the release of p-nitroaniline from a synthetic substrate N-Succinyl-Ala-Ala-Ala-p-nitroanilide.
A sample stock solution of 500 μg/mL and 1120 μg/mL was prepared from M. africana leaf extract and compound respectively. Briefly, 2.5 mg of extract and 2.24 mg of the compound was weighed and dissolved in 100 μL of methanol. The volume was then made up to 5 mL for the extract and to 2 mL for the compound with 100mM Tris-HCl buffer, pH 8.0. Subsequent dilutions for the assay were made as required.
An elastase inhibition assay was carried out largely as per the method of Bieth et al. (1974) with modifications. In brief, a pre-incubation mixture contained 100 mM of either Tris-HCl buffer (pH 8.0), vehicle buffer, positive control, or test sample of various concentrations together with 4.942 mU of elastase enzyme. The reagents were mixed and the mixture was pre-incubated at 37° C. for 15 min. Following pre-incubation, substrate (N-Succinyl-Ala-Ala-Ala-p-nitroanilide) was added to a final concentration of 0.338 mM and the solution was mixed and incubated at 37° C. for 30 min. The absorbance was measured at 405 nm in a micro-plate reader (Versamax, Molecular devices, USA). A control reaction was carried out without the test sample.
The % inhibition of the enzyme was calculated as follows:
IC50 was calculated using log-probit analysis.

[3] = Compound MA-NR-01 run, read-out: % Inhibition (Mean ± SEM)
[4] = MA ethanolic extract run, read-out: % Inhibition (Mean ± SEM)

Compound: CCCCCCCCCCCCOS(=O)(=O)[O-].[Na+] [Positive Control Right, sodium lauryl sulphate]
Number of subjects with reactions after 48 hours ([1]; 20 volunteers, 48 hours): 12
Irritancy ([1]; patch test on human subjects): Irritant
Average value ([1]; patch test, 20 volunteers, results after 96 hours): 0.54
Average score ([1]; patch test, score scale 0-4, results after 96 hours): 1.03
Irritancy potential % (TP-NC)/(PC-NC) ([1]; relative to positive control sodium lauryl sulphate and negative control water): 100%

inhibition at 2.5 µg/mL ([2]; 2.5 μg/mL, Compound MA-NR-01 run, read-out: % Inhibition (Mean ± SEM)): 10.6 ± 0.32%
inhibition at 5 µg/mL [2, 3]: 21.1 ± 0.53%
inhibition at 5 µg/mL [2, 4]: 13.2 ± 2.25%
inhibition at 10 µg/mL [2, 3]: 40.1 ± 1.22%
inhibition at 10 µg/mL [2, 4]: 24.1 ± 4.5%
inhibition at 25 µg/mL [2, 3]: 58.85 ± 0.17%
inhibition at 25 µg/mL [2, 4]: 41.4 ± 0.92%
inhibition at 50 µg/mL [2, 3]: 62.1 ± 1.18%
inhibition at 50 µg/mL [2, 4]: 53.2 ± 0.56%
IC50 ([2]; run of Compound MA-NR-01 (right half of Table 1)): 45.5 µM
IC50 ([2]; run of MA ethanolic extract (left half of Table 1)): 88.9 µM
Compound: C[C@H]1[C@H](C)CC[C@]2(C(=O)O)CC[C@]3(C)C(=CC[C@@H]4[C@@]5(C)CC[C@H](O)C(C)(C)[C@@H]5CC[C@]43C)[C@H]12 [Ursolic Acid, ursolic acid]

% Inhibition (Mean ± SEM) ([2]; 7.8125 μg/mL, Compound MA-NR-01 run): 11.79 ± 4.35%
% Inhibition (Mean ± SEM) ([2]; 15.625 μg/mL, Compound MA-NR-01 run): 4.79 ± 1.66%
% Inhibition (Mean ± SEM) ([2]; 31.25 μg/mL, Compound MA-NR-01 run): 6.76 ± 4.57%
% Inhibition (Mean ± SEM) ([2]; 62.5 μg/mL, Compound MA-NR-01 run): 5.73 ± 1.04%
% Inhibition (Mean ± SEM) ([2]; 125 μg/mL, Compound MA-NR-01 run): 13.00±1.04%
% Inhibition (Mean ± SEM) ([2]; 250 μg/mL, Compound MA-NR-01 run): 25.75 ± 1.46%
% Inhibition (Mean ± SEM) ([2]; 500 μg/mL, Compound MA-NR-01 run): 31.02 ± 1.22%
Compound: Myrsinoside B [MA-NR-01]
